Source: patent publication US11702414B2, “Thiadiazole IRAK4 inhibitors” (Gilead Sciences, Inc., priority 2018, dated 2023)
Like-named read-outs stand apart in the source and are kept apart here.

What was measured:
[1] = target: IRAK4 enzyme (Homo sapiens (Human), UniProt Q9NWZ3); assay: IRAK4 Biochemical Assay (TR-FRET, STK1 KinEASE); settings: second part of Table 2 (compounds 33-343); unit inferred; read-out: IC50 IRAK4-HTBS
Method: IRAK4 enzyme (Carna Biosciences, Chuo-ku, Kobe, Japan) activity was measured by detecting phosphorylated peptide substrate formation using an antibody against the phosphorylated peptide substrate. This is a time-resolved fluorescence resonance energy transfer (TR-FRET) immunoassay, based on the STK1 KinEASE Assay (Cisbio, Bedford, Mass.). The assay was designed as a simple two-step, endpoint assay (a 5 μl enzyme reaction followed by 5 μl stop and detect Solution) performed in ProxiPlate-384 Plus plates (Perkin Elmer, Waltham, Mass.). […] Compounds diluted in DMSO were spotted into 384 well plates using a Labcyte® Echo 550 Liquid Handling System prior to addition of IRAK4 enzyme and peptide substrate. Reaction solutions were delivered using a Multi-Flo (Bio-Tek Instruments). The enzyme and peptide solution was incubated with compound for 15 minutes at room temp before the reaction was initiated by the addition of ATP. The standard 5 μl reaction mixture contained 500 μM ATP, 2 μM peptide (STK1 Peptide), 0.75 nM of IRAK4 in reaction buffer (50 mM HEPES, pH 7.0, 0.02% NaN3, 0.01% BSA, 0.1 mM Orthovanadate, 5 mM MgCl2, 0.025% NP-40, 1 mM DTT). After 120 min of incubation at room temperature, 5 μl of Stop and Detect Solution (1:100 Cryptate labeled anti-phosphorylated peptide antibody solution and 125 nM Tracer in a 50 mM HEPES pH 7.0 detection buffer containing sufficient EDTA) was added. The plate was then further incubated for 60 minutes at room temperature and read on Envision 2103 Multilabeled reader (PerkinElmer) with excitation/emission/FRET emission at 340 nm/615 nm/665 nm, respectively. Fluorescence intensities at 615 nm and 665 nm emission wavelengths were expressed as a ratio (665 nm/615 nm). Percentage of inhibition was calculated as below: % Inhibition=100×(RatioSample−Ratio0% Inhibition)/(Ratio100% Inhibition−Ratio0% Inhibition)
The 0% inhibition value comes from control wells lacking inhibitor.

[2] = tested on: TNFα; assay: IRAK4 Monocyte TNFα Cell Based Assay; parameters: species or system human
Method: IRAK4 Monocyte TNFα Cell Based Assay Procedure:
The cell suspension was then plated at a density of 5,000 cells/well onto black 384 well Greiner clear bottom plates. Plates were pre-spotted with test compounds and serially diluted in DMSO where 40 nL/well were delivered using the Echo 550 acoustic liquid dispenser (Labcyte®) for a final DMSO concentration of 0.1%. Plated cells were treated with compound for 1 hour at 37° C. Cells were then stimulated with 50 pg/ml of LPS (Sigma) excluding outside columns of plate used for unstimulated cell control wells. Cells were incubated for an additional 4 hours at 37° C. Cells were then spun out of the media and 5μl of sample were taken and analyzed for total TNFα content using the TR-FRET Human TNFα detection system (CisBio). This system utilizes two labeled antibodies (cryptate and XL665) that bind to two different epitopes of the TNFα molecule and produce FRET signal proportional to the concentration of TNFα in the sample. Detection antibodies are mixed 50:50 and 5 μL were dispensed into each well. Plates were covered with clear seals and incubated at room temp overnight. […] Percent of control was calculated as follows: % Control=100×(RatioSample−Ratio0% Stimulation)/(Ratio100% Stimulation−Ratio0% Stimulation) where unstimulated cells (0% stimulation) were the negative control and stimulated cells (100% stimulation) were used as the positive control.

[3] = Homo sapiens, Monocyte, human monocytes, LPS-stimulated, compounds 1-32, read-out: EC50 TNF
[4] = human monocytes, second part of Table 2 (compounds 33-343), unit inferred, read-out: EC50MONO TNF HTRF

Chain of IRAK4 enzyme (Q9NWZ3 whole entry): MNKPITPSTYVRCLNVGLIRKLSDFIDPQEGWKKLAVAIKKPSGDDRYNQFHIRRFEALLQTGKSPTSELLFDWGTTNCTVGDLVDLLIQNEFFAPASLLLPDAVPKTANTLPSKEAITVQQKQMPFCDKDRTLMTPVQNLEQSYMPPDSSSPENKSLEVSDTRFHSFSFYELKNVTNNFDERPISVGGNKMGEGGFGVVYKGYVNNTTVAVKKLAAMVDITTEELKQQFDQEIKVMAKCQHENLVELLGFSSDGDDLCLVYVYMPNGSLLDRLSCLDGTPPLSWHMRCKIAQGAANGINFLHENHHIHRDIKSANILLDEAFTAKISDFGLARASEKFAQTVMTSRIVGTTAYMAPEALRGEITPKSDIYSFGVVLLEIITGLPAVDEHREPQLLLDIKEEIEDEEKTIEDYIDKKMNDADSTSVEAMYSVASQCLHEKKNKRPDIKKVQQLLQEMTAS

Row | SMILES | EC50 [2, 4] | also measured
1 | CC(=O)NC1CCC(F)(c2nnc(-c3cnc(-c4ccc5cc(C#N)cnn45)cc3NC3COC3)s2)CC1 (single isomer, unassigned) [Example 195, N-(4-(5-(6-(3-cyanopyrrolo[1,2-b]pyridazin-7-yl)-4-(oxetan-3-ylamino)pyridin-3-yl)-1,3,4-thiadiazol-2-yl)-4-fluorocyclohexyl)acetamide] | – | IC50 [1]: 1.09 nM
2 | CC(=O)NC1CCC(F)(c2nnc(-c3cnc(-c4ccc5cc(C#N)cnn45)cc3NC3COC3)s2)CC1 (single isomer, unassigned) [Example 196, N-(4-(5-(6-(3-cyanopyrrolo[1,2-b]pyridazin-7-yl)-4-(oxetan-3-ylamino)pyridin-3-yl)-1,3,4-thiadiazol-2-yl)-4-fluorocyclohexyl)acetamide] | – | IC50 [1]: 1.62 nM
3 | CC1(O)CCC(c2nnc(-c3cnc(-c4ccc5cc(C#N)cnn45)cc3NC3COC3)s2)CC1 (single isomer, unassigned) [Example 206, 7-(5-(5-(4-hydroxy-4-methylcyclohexyl)-1,3,4-thiadiazol-2-yl)-4-(oxetan-3-ylamino)pyridin-2-yl)pyrrolo[1,2-b]pyridazine-3-carbonitrile] | – | IC50 [1]: 0.56 nM
4 | CC(=O)N[C@H]1CC[C@H](c2nnc(-c3cnc(-c4ccc5cc(C#N)cnn45)cc3N[C@H]3CC[C@H](c4nnc(C(F)F)o4)CC3)s2)CC1 [Example 2] | – | EC50 [2, 3]: 8 nM
5 | CC(=O)N[C@H]1CC[C@H](c2nnc(-c3cnc(-c4ccc5cc(C#N)cnn45)cc3NCC#N)s2)CC1 [Example 20, N-((1r,4r)-4-(5-(4-((cyanomethyl)amino)-6-(3-cyanopyrrolo[1,2-b]pyridazin-7-yl)pyridin-3-yl)-1,3,4-thiadiazol-2-yl)cyclohexyl)acetamide] | – | EC50 [2, 3]: 6 nM
6 | CC(=O)N[C@H]1CC[C@H](c2nnc(-c3cnc(-c4ccc5cc(C#N)cnn45)cc3NC3COC3)s2)CC1 [Example 21, N-((1r,4r)-4-(5-(6-(3-cyanopyrrolo[1,2-b]pyridazin-7-yl)-4-(oxetan-3-ylamino)pyridin-3-yl)-1,3,4-thiadiazol-2-yl)cyclohexyl)acetamide] | – | EC50 [2, 3]: 10 nM
7 | COC(=O)NC[C@H]1C[C@H](Nc2cc(-c3ccc4cc(C#N)cnn34)ncc2-c2nnc([C@H]3CC[C@H](NC(C)=O)CC3)s2)C1 [Example 23, methyl (((1R,3r)-3-((5-(5-((1r,4R)-4-acetamidocyclohexyl)-1,3,4-thiadiazol-2-yl)-2-(3-cyanopyrrolo[1,2-b]pyridazin-7-yl)pyridin-4-yl)amino)cyclobutyl)methyl)carbamate] | – | EC50 [2, 3]: 6 nM
8 | CC(=O)N[C@@H]1CCN(c2nnc(-c3cnc(-c4ccc5cc(C#N)cnn45)cc3NC(C)C)s2)C[C@@H]1O [Example 63, N-((3S,4R)-1-(5-(6-(3-cyanopyrrolo[1,2-b]pyridazin-7-yl)-4-(isopropylamino)pyridin-3-yl)-1,3,4-thiadiazol-2-yl)-3-hydroxypiperidin-4-yl)acetamide] | – | EC50 ([2]; Homo sapiens, Monocyte, human monocytes, second part of Table 2 (compounds 33-343), unit inferred, read-out: EC50MONO TNF HTRF): 13.8 nM
9 | CC(C)Nc1cc(-c2ccc3cc(C#N)cnn23)ncc1-c1nnc(C23CCC(O)(CC2)CC3)s1 [Example 89, 7-(5-(5-(4-hydroxybicyclo[2.2.2]octan-l-yl)-1,3,4-thiadiazol-2-yl)-4-(isopropylamino)pyridin-2-yl)pyrrolo[1,2-b]pyridazine-3-carbonitrile] | 11.3 nM | –
10 | CC(C)Nc1cc(-c2ccc3cc(C#N)cnn23)ncc1-c1nnc(N2CC3CC(C2)N3C(=O)C2CCN(C)CC2)s1 [Example 117, 7-(4-(isopropylamino)-5-(5-(6-(1-methylpiperidine-4-carbonyl)-3,6-diazabicyclo[3.1.1]heptan-3-yl)-1,3,4-thiadiazol-2-yl)pyridin-2-yl)pyrrolo[1,2-b]pyridazine-3-carbonitrile] | – | EC50 ([2]; Homo sapiens, Monocyte, read-out: EC50MONO TNF HTRF): 11.1 nM
11 | C[C@H](C#N)Nc1cc(-c2ccc3cc(C#N)cnn23)ncc1-c1nnc(N2C[C@H]3CC[C@@H](C2)[C@@H]3NC(=O)C2CC2)s1 [Example 148, N-((1R,5S,8S)-3-(5-(4-(((R)-1-cyanoethyl)amino)-6-(3-cyanopyrrolo[1,2-b]pyridazin-7-yl)pyridin-3-yl)-1,3,4-thiadiazol-2-yl)-3-azabicyclo[3.2.1]octan-8-yl)cyclopropanecarboxamide] | 1.4 nM | –
12 | CC(C)Nc1cc(-c2ccc3cc(C#N)cnn23)ncc1-c1nnc(N2CC[C@@H](O)C(F)(F)C2)s1 [Example 162, (R)-7-(5-(5-(3,3-difluoro-4-hydroxypiperidin-l-yl)-1,3,4-thiadiazol-2-yl)-4-(isopropylamino)pyridin-2-yl)pyrrolo[1,2-b]pyridazine-3-carbonitrile] | 26.5 nM | –
13 | C[C@H](C#N)Nc1cc(-c2ccc3cc(C#N)cnn23)ncc1-c1nnc(N2CC3CC(C2)O3)s1 [Example 178, 7-(5-(5-(6-oxa-3-azabicyclo[3.1.1]heptan-3-yl)-l,3,4-thiadiazol-2-yl)-4-(((R)-1-cyanoethyl)amino)pyridin-2-yl)pyrrolo[1,2-b]pyridazine-3-carbonitrile] | 4.9 nM | –
14 | CC(=O)N[C@@H]1CCN(c2nnc(-c3cnc(-c4ccc5cc(C#N)cnn45)cc3NC3COC3)s2)CC1(F)F [Example 183, (R)-N-(1-(5-(6-(3-cyanopyrrolo[l,2-b]pyridazin-7-yl)-4-(oxetan-3-ylamino)pyridin-3-yl)-1,3,4-thiadiazol-2-yl)-3,3-difluoropiperidin-4-yl)acetamide] | 8.8 nM | –
15 | CC1(O)CCN(c2nnc(-c3cnc(-c4ccc5cc(C#N)cnn45)cc3NC3COC3)s2)CC1 [Example 187, 7-(5-(5-(4-hydroxy-4-methylpiperidin-1-yl)-1,3,4-thiadiazol-2-yl)-4-(oxetan-3-ylamino)pyridin-2-yl)pyirolo[1,2-b]pyridazine-3-carbonitrile] | 10.8 nM | –
16 | CC1(O)CCN(c2nnc(-c3cnc(-c4ccc5cc(C#N)cnn45)cc3NC3CCOCC3)s2)CC1 [Example 188, 7-(5-(5-(4-hydroxy-4-methylpiperidin-l-yl)-1,3,4-thiadiazol-2-yl)-4-((tetrahydro-2H-pyran-4-yl)amino)pyridin-2-yl)pyrrolo[1,2-b]pyridazine-3-carbonitrile] | 7.6 nM | –
17 | CC(C)Nc1cc(-c2ccc3cc(C#N)cnn23)ncc1-c1nnc(N2CC[C@@](C)(O)[C@H](F)C2)s1 [Example 191, 7-(5-(5-((3R,$R)-3-fluoro-4-hydroxy-4-methylpiperidin-1-yl)-1,3,4-thiadiazol-2-yl)-4-(isopropylamino)pyridin-2-yl)pyrrolo[1,2-b]pyridazine-3-carbonitrile] | 22.9 nM | –
18 | C[C@]1(O)CCN(c2nnc(-c3cnc(-c4ccc5cc(C#N)cnn45)cc3NC3CCOCC3)s2)C[C@@H]1F [Example 204, 7-(5-(5-((3S,4S)-3-fluoro-4-hydroxy-4-methylpiperidin-l-yl)-1,3,4-thiadiazol-2-yl)-4-((tetrahydro-2H-pyran-4-yl)amino)pyridin-2-yl)pyrrolo[1,2-b]pyridazine-3-carbonitrile] | 3.5 nM | –
19 | CC(C)Nc1cc(-c2ccc3cc(C#N)cnn23)ncc1-c1nnc(CCN)s1 [Example 212, 7-(5-(5-(2-aminoethyl)-l,3,4-thiadiazol-2-yl)-4-(isopropylamino)pyridin-2-yl)pyrrolo[1,2-b]pyridazine-3-carbonitrile] | 305 nM | –
20 | CC(C)Nc1cc(-c2ccc3cc(C#N)cnn23)ncc1-c1nnc(C(=O)N2CC[C@H](CO)C2)s1 [Example 221, (S)-7-(5-(5-(3-(hydroxymethyl)pyrrolidine-l-carbonyl)-1,3,4-thiadiazol-2-yl)-4-(isopropylamino)pyridin-2-yl)pyrrolo[1,2-b]pyridazine-3-carbonitrile] | 2320 nM | –
